Activity calls are given as the source filed them. The calls are words filed in the database; no cut-off is given here.
Legend:
CT26 [1] = experiment: Antitumor activity against mouse CT26 cells allografted in female BALB/c mouse assessed as increase in CD8+T cells in tumor tissue at 200 mg/kg QD, ip in presence of anti-PD-L1 antibody measured every 2 days for 12 days by immunofluorescence analysis; type: functional, organism-based; conditions: time 12.0 day
CT26 [2] = experiment: Antitumor activity against mouse CT26 cells allografted in female BALB/c mouse assessed as increase in CD8+T cells in tumor tissue at 200 mg/kg QD, ip measured every 2 days for 12 days by immunofluorescence analysis; type: functional, organism-based; conditions: time 12.0 day
[3] = Efflux ratio of apparent permeability from basolateral to apical side over apical to basolateral side in human Caco-2 cells at 10 uM by LC-MS/MS analysis; type: ADME, cell-based
[4] = Inhibition of TK (unknown origin) at 1 uM by KINOMEscan assay; conditions: Homo sapiens
CT26 [5] = experiment: Antitumor activity against mouse CT26 cells allografted in female BALB/c mouse assessed as decrease in M2-type macrophages in tumor tissue at 200 mg/kg QD, ip in presence of anti-PD-L1 antibody measured every 2 days for 12 days by immunohistochemical analysis; type: functional, organism-based; conditions: time 12.0 day
CT26 [6] = experiment: Antitumor activity against mouse CT26 cells allografted in female BALB/c mouse assessed as increase in infiltration of CD8+T cells in tumor tissue at 200 mg/kg QD, ip in presence of anti-PD-L1 antibody measured every 2 days for 12 days by immunohistochemical analysis; type: functional, organism-based; conditions: time 12.0 day
CT26 [7] = experiment: Antitumor activity against mouse CT26 cells allografted in female BALB/c mouse assessed as tumor growth inhibition at 200 mg/kg QD, ip measured every 2 days for 12 days relative to control; type: functional; conditions: CT26, 288 h, time 12 day, read-out: TGI
THP1-Dual KO-STING = experiment: Activation of STING-mediated immune response in human THP1-Dual KO-STING cells assessed as cGAMP-induced ISRE activation at 1 uM preincubated with conditioned medium containing 36 hrs compound treated with human MDA-MB-231 cells and measured after 24 hrs by quanti-luc luciferase assay; type: cell-based; conditions: filed as activator, time 60.0 hrs
[8] = molecular target: T1, Ectonucleotide pyrophosphatase/phosphodiesterase family member 1 (Homo sapiens, UniProt P22413); experiment: Inhibition of ENPP1 in human MDA-MB-231 cells using p-NPh-5TMP as substrate at pH 8.5 measured after 60 mins; type: cell-based
T1 sequence (P22413 whole entry): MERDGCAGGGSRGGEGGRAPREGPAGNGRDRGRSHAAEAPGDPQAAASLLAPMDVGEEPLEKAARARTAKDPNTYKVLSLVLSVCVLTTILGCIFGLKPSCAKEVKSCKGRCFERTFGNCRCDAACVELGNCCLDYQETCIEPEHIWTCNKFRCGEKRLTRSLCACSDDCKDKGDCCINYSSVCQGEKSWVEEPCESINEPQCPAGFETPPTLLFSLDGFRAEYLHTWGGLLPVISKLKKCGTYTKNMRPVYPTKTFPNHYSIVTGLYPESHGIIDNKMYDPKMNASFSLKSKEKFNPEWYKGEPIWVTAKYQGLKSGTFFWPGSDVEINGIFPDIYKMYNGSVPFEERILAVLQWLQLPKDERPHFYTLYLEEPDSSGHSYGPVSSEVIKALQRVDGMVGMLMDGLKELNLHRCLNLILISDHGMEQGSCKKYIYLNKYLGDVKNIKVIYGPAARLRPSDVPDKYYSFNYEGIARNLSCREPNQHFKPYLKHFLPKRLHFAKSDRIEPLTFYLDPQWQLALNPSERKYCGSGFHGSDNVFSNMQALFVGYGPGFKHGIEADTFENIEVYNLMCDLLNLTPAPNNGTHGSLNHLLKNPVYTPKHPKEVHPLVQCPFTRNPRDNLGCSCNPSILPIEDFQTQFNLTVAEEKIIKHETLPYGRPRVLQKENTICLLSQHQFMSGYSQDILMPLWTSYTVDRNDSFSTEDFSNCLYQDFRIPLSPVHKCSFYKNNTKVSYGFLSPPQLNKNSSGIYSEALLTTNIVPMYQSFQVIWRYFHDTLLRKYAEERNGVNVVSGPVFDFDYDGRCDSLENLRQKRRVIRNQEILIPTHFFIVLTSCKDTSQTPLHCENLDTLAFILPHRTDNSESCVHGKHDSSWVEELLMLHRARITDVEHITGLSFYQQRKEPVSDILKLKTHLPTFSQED

CT26 [9] = experiment: Antitumor activity against mouse CT26 cells allografted in female BALB/c mouse assessed as decrease in M2-type macrophages in tumor tissue at 200 mg/kg QD, ip measured every 2 days for 12 days by immunohistochemical analysis; type: functional, organism-based; conditions: time 12.0 day
CT26 [10] = experiment: Antitumor activity against mouse CT26 cells allografted in female BALB/c mouse assessed as increase in M1-type macrophages in tumor tissue at 200 mg/kg QD, ip in presence of anti-PD-L1 antibody measured every 2 days for 12 days by immunofluorescence analysis; type: functional, organism-based; conditions: time 12.0 day
[11] = molecular target: T1, Ectonucleotide pyrophosphatase/phosphodiesterase family member 1; experiment: Inhibition of ENPP1 in human MDA-MB-231 cells using p-NPh-5TMP as substrate at pH 9.5 measured after 60 mins; type: cell-based
Homo sapiens = species on record: Homo sapiens; experiment: Inhibition of TLK (unknown origin) at 1 uM by KINOMEscan assay
[12] = AUC(0 to t) in Sprague-Dawley rat at 10 mg/kg, iv measured upto 24 hrs by LC-MS/MS analysis; type: ADME, organism-based; conditions: in vivo
THP-1 = experiment: Activation of STING signalling pathway in human THP-1 cells assessed as increase in TBK1 phosphorylation at 300 nM preincubated with compound for 2 hrs followed by cGAMP addition and measured after 3 hrs by Western blot analysis; type: cell-based; conditions: filed as activator, time 5.0 hrs
CT26 [13] = experiment: Antitumor activity against mouse CT26 cells allografted in female BALB/c mouse plasma assessed as increase in IP-10 secretion in tumor tissue at 200 mg/kg QD, ip in presence of anti-PD-L1 antibody measured every 2 days for 12 days by ELISA analysis; type: functional, organism-based; conditions: time 12.0 day
CT26 [14] = experiment: Antitumor activity against mouse CT26 cells allografted in female BALB/c mouse assessed as increase in M1-type macrophages in tumor tissue at 200 mg/kg QD, ip measured every 2 days for 12 days by immunofluorescence analysis; type: functional, organism-based; conditions: time 12.0 day

efflux ratio at 10 µM [3]: 20.1
inhibition [4]: inactive
IC50 [8]: 0.042 µM
IC50 [11]: 0.00153 µM
inhibition (Homo sapiens): inactive
AUC(0-t) at 24 h [12]: 2.03 µg·h/mL
Compound: COc1cccc2c(N3CCC(O)(CNS(N)(=O)=O)CC3)ncnc12
Activity (CT26 [1]): Active
Activity (CT26 [2]): Active
Activity (CT26 [5]): Active
Activity (CT26 [6]): Active
inhibition in vivo at 200 mg/kg (CT26 [7]): 39.9%
Activity (THP1-Dual KO-STING): Active
Activity (CT26 [9]): Active
Activity (CT26 [10]): Active
Activity (THP-1): Active
Activity (CT26 [13]): Active
Activity (CT26 [14]): Active
